Reference: patent publication US10793568B2, “Hormone receptor modulators for treating metabolic conditions and disorders” (ARDELYX, INC., priority 2016, dated 2020)
Where two headings read alike, the source gives them in different places.

Tests used:
[1] = target: human Farnesoid X receptor ligand-binding domain/Gal4 DNA binding domain chimera (Homo sapiens (Human), UniProt Q96RI1); test: Cell-based assay of FXR activation (FXR-UAS-bla HEK 293T beta-lactamase reporter); conditions: cellular FXR beta-lactamase reporter assay; for Emax: HEK-293T, extent of activation relative to GW4064, read-out: % Efficacy; for EC50: FXR-UAS-bla HEK 293T cells, 16 h, pEC50 = -log EC50
Procedure, shortened: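 HEK 293T cells stably expressing a Gal4-fused human FXR LBD and a UAS-driven beta-lactamase reporter were incubated with serially diluted compounds for 16 h at 37 °C in phenol red-free DMEM with 2% charcoal-stripped FBS. CCF4 FRET read-out: excitation 409 nm, emission 447 nm. pEC50 comes from a 3-parameter logistic fit, and efficacy is given as % of GW4064.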

[2] = target: ligand binding domain of human FXR (Homo sapiens (Human), UniProt Q96RI1); test: FXR ligand binding assay (LanthaScreen TR-FRET, SRC2-2 peptide recruitment); conditions: for pEC50: -log EC50, concentration required to produce 50% activation; for Emax: read-out: % Efficacy
[3] = extent of activation relative to GW4064

Sequence of ligand binding domain of human FXR (Q96RI1 262-486): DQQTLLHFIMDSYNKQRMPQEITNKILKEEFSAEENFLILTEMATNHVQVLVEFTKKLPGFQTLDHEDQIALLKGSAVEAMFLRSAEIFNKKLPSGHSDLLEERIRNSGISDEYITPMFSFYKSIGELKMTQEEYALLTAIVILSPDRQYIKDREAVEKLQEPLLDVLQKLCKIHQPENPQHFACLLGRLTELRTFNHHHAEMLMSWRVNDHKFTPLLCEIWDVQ
Sequence of human Farnesoid X receptor ligand-binding domain/Gal4 DNA binding domain chimera (Q96RI1 262-486, change not shown): as the sequence (Q96RI1 262-486) above
Sequence of human Farnesoid X receptor ligand-binding domain/Gal4 DNA binding domain chimera (P04386 1-147 partner): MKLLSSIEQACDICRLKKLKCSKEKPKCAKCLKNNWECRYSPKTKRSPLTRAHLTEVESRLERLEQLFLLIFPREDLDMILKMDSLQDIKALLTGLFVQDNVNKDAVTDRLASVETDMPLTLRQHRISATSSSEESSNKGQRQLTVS

| Structure (SMILES) | Emax [1] [%] | EC50 [1] [nM] | pEC50 [2] | Emax [2, 3] [%] | Emax [2] [%] |
| --- | --- | --- | --- | --- | --- |
| O=C(O)c1ccc(N2C[C@@H]3C[C@H]2C[C@H]3OCc2c(-c3ccccc3C(F)(F)F)noc2C2CC2)cc1 [Compound I-120, 4-[(1S,4S,5R)-5-({5-cyclopropyl-3-[2-(trifluoromethyl)phenyl]-1,2-oxazol-4-yl}methoxy)-2-azabicyclo[2.2.1]heptan-2-yl]benzoic Acid] | 112 | 2 | 8 | 188 | – |
| O=C(O)c1ccc(N2C[C@@H]3C[C@H]2C[C@H]3OCc2c(-c3ccccc3C(F)(F)F)noc2C2CC2)c(F)c1 [Compound I-121, 4-[(1S,4S,5R)-5-({5-cyclopropyl-3-[2-(trifluoromethyl)phenyl]-1,2-oxazol-4-yl}methoxy)-2-azabicyclo[2.2.1]heptan-2-yl]-3-fluorobenzoic Acid] | 107 | 1.26 | – | 174 | – |
| O=C(O)c1ccc(N2C[C@@H]3C[C@H]2C[C@H]3OCc2c(-c3c(Cl)cccc3Cl)noc2C2(F)CC2)cc1F [Compound I-122, 4-[(1S,4S,5R)-5-{[3-(2,6-dichlorophenyl)-5-(1-fluorocyclopropyl)-1,2-oxazol-4-yl]methoxy}-2-azabicyclo[2.2.1]heptan-2-yl]-2-fluorobenzoic Acid] | 102 | 1.58 | 9.6 | 137 | – |
| N#Cc1cc(N2C[C@@H]3C[C@H]2C[C@H]3OCc2c(-c3c(Cl)cccc3Cl)noc2C2(F)CC2)ccc1C(=O)O [Compound I-123, 2-cyano-4-[(1S,4S,5R)-5-{[3-(2,6-dichlorophenyl)-5-(1-fluorocyclopropyl)-1,2-oxazol-4-yl]methoxy}-2-azabicyclo[2.2.1]heptan-2-yl]benzoic Acid] | 99 | 0.501 | 8.6 | 160 | – |
| Cc1cccc(Cl)c1-c1noc(C2(F)CC2)c1CO[C@@H]1C[C@@H]2C[C@H]1CN2c1ccc(C(=O)O)c(F)c1 [Compound I-124, 4-[(1S,4S,5R)-5-{[3-(2-chloro-6-methylphenyl)-5-(1-fluorocyclopropyl)-1,2-oxazol-4-yl]methoxy}-2-azabicyclo[2.2.1]heptan-2-yl]-2-fluorobenzoic Acid] | 105 | 3.98 | 9.7 | – | 143 |
| O=C(O)c1ccc(N2C[C@@H]3C[C@H]2C[C@H]3OCc2c(C3CCC4(CC3)CC4)noc2C2CC2)cc1 [Compound I-125, 4-[(1S,4S,5R)-5-[(5-cyclopropyl-3-{spiro[2.5]octan-6-yl}-1,2-oxazol-4-yl)methoxy]-2-azabicyclo[2.2.1]heptan-2-yl]benzoic Acid] | 106 | 251 | – | – | 92 |
| O=C(O)c1ccc(N2C[C@@H]3C[C@H]2C[C@H]3OCc2c(C3CCC4(CC3)CC4)noc2C2CC2)c(F)c1 [Compound I-126, 4-[(1S,4S,5R)-5-[(5-cyclopropyl-3-{spiro[2.5]octan-6-yl}-1,2-oxazol-4-yl)methoxy]-2-azabicyclo[2.2.1]heptan-2-yl]-3-fluorobenzoic Acid] | 106 | 39.8 | – | – | 114 |
| O=C(O)c1ccc([N+]2([O-])C[C@@H]3C[C@H]2C[C@H]3OCc2c(-c3c(Cl)cccc3Cl)noc2C2CC2)cc1 (stereo partly drawn) [Compound I-127, (1S,4S,5R)-2-(4-carboxyphenyl)-5-{[5-cyclopropyl-3-(2,6-dichlorophenyl)-1,2-oxazol-4-yl]methoxy}-2-azabicyclo[2.2.1]heptan-2-ium-2-olate] | 104 | 2.51 | 9.3 | 136 | – |
| O=C(O)c1ccc(N2C[C@@H]3C[C@H]2C[C@H]3OCc2c(-c3c(Cl)cccc3Cl)noc2C2CC2)cn1 [Compound I-128, 5-[(1S,4S,5R)-5-{[5-cyclopropyl-3-(2,6-dichlorophenyl)-1,2-oxazol-4-yl]methoxy}-2-azabicyclo[2.2.1]heptan-2-yl]pyridine-2-carboxylic Acid] | 93 | 10 | 7.8 | 110 | – |
| O=C(O)c1cnc(N2C[C@@H]3C[C@H]2C[C@H]3OCc2c(-c3c(Cl)cccc3Cl)noc2C2CC2)c(F)c1 [Compound I-129, 6-[(1S,4S,5R)-5-{[5-cyclopropyl-3-(2,6-dichlorophenyl)-1,2-oxazol-4-yl]methoxy}-2-azabicyclo[2.2.1]heptan-2-yl]-5-fluoropyridine-3-carboxylic Acid] | 101 | 3.98 | – | 152 | – |
| O=C(O)c1cnc(N2C[C@@H]3C[C@H]2C[C@H]3OCc2c(-c3c(Cl)cccc3Cl)noc2C2(F)CC2)c(F)c1 [Compound I-130, 6-[(1S,4S,5R)-5-{[3-(2,6-dichlorophenyl)-5-(1-fluorocyclopropyl)-1,2-oxazol-4-yl]methoxy}-2-azabicyclo[2.2.1]heptan-2-yl]-5-fluoropyridine-3-carboxylic Acid] | 99 | 7.94 | 8 | 152 | – |
| O=C(O)c1ccc(N2C[C@H]3C[C@@H]2C[C@@H]3OCc2c(-c3c(Cl)cccc3Cl)noc2C2CC2)c(F)c1 [Compound I-131, 4-[(1R,4R,5S)-5-{[5-cyclopropyl-3-(2,6-dichlorophenyl)-1,2-oxazol-4-yl]methoxy}-2-azabicyclo[2.2.1]heptan-2-yl]-3-fluorobenzoic Acid] | 94 | 31.6 | – | – | 108 |
| O=C(O)c1ccc(N2C[C@H]3C[C@@H]2C[C@@H]3OCc2c(-c3c(Cl)cccc3Cl)noc2C2CC2)cc1 [Compound I-132] | – | < 316 | – | 98 | – |
| N#Cc1c(F)cc(N2C[C@@H]3C[C@H]2C[C@H]3OCc2c(-c3c(Cl)cccc3Cl)noc2C2CC2)cc1F [Compound I-133, 4-[(1S,4S,5R)-5-{[5-cyclopropyl-3-(2,6-dichlorophenyl)-1,2-oxazol-4-yl]methoxy}-2-azabicyclo[2.2.1]heptan-2-yl]-2,6-difluorobenzonitrile] | 106 | < 39.8 | 7.4 | 79 | – |
| Fc1cc(-c2nn[nH]n2)ccc1N1C[C@@H]2C[C@H]1C[C@H]2OCc1c(-c2c(Cl)cccc2Cl)noc1C1CC1 [Compound I-134, (1S,4S,5R)-5-{[5-cyclopropyl-3-(2,6-dichlorophenyl)-1,2-oxazol-4-yl]methoxy}-2-[2-fluoro-4-(2H-1,2,3,4-tetrazol-5-yl)phenyl]-2-azabicyclo[2.2.1]heptane] | 104 | 0.794 | 8.2 | 156 | – |
| O=C1NCc2cc(N3C[C@@H]4C[C@H]3C[C@H]4OCc3c(-c4c(Cl)cccc4Cl)noc3C3CC3)ccc21 [Compound I-135, 5-[(1S,4S,5R)-5-{[5-cyclopropyl-3-(2,6-dichlorophenyl)-1,2-oxazol-4-yl]methoxy}-2-azabicyclo[2.2.1]heptan-2-yl]-2,3-dihydro-1H-isoindol-1-one] | 102 | 1 | 9.4 | 152 | – |
| O=C1NCCc2cc(N3C[C@@H]4C[C@H]3C[C@H]4OCc3c(-c4c(Cl)cccc4Cl)noc3C3CC3)ccc21 [Compound I-136, 6-[(1S,4S,5R)-5-{[5-cyclopropyl-3-(2,6-dichlorophenyl)-1,2-oxazol-4-yl]methoxy}-2-azabicyclo[2.2.1]heptan-2-yl]-1,2,3,4-tetrahydroisoquinolin-1-one] | 114 | 3.98 | 9 | – | 154 |
